Source: US9084791B2, “Method of inhibiting myopia and application of an adenylyl cyclase inhibitor as a drug for inhibiting myopia” (SCHOOL OF OPHTHALMOLOGY AND OPTOMETRY, WENZHOU MEDICAL …, priority 2010, dated 2015)

Test system: form-deprivation myopia of guinea pigs
Assay: Monocular form-deprivation myopia in guinea pigs, sub-conjunctival injection
Assay type: in vivo, guinea pig
Settings: form-deprivation eyes, 1 μM and 100 μM sub-conjunctival injection daily, after 4 weeks, vs vehicle control group
Experimental: Experimental animals were 3 weeks old, UK variety, three-color and short-haired guinea pigs. Monocular form-deprivation (FD) was performed by using a facemask, and the form-deprivation eyes were treated with adenylyl cyclase inhibitor (ACI) SQ22536 at different concentrations (for example, 1 μM and 100 μM) by sub-conjunctival injection, so as to differently decrease intraocular cAMP levels. Animals were divided into 4 groups randomly: form-deprivation control group (FD+non-injection), form-deprivation+vehicle control group (FD+vehicle) (vehicle here refers to 0.9% saline), form-deprivation+drug groups (FD+1 μM SQ22536 group and FD+100 μM SQ22536 group). Drugs were sub-conjunctivally injected at 9:00 am every day for 4 weeks. The contralateral eyes were not treated. Refraction were measured with an infrared eccentric refractometer (EIR). Corneal curvature radii were measured with a keratometer. Eye axis parameters, such as vitreous chamber depths and axial lengths, were measured with an A-scan ultrasonograph (11 MHz), respectively, before experiment, 2 weeks after treatment, and 4 weeks after treatment.

## Nc1ncnc2c1ncn2C1CCCO1 (stereo not drawn) [SQ22536, 9-(Tetrahydro-2-furanyl)-9H-purin-6-amine]
time- and concentration-dependent effect (FIG. 1)
  myopic refractive error (refraction difference between experimental eye and contralateral eye): less than that of the vehicle control group
time- and concentration-dependent effect (FIG. 2)
  vitreous chamber elongation (vitreous chamber depth difference between experimental eye and contralateral eye): significantly less than that of the vehicle control group
time- and concentration-dependent effect (FIG. 3)
  axial elongation (axial length difference between experimental eye and contralateral eye): significantly less than that of the vehicle control group
